# Measured values as given in patent US20240287070A1, “FUSED HETEROCYCLIC DERIVATIVES” (Janssen Sciences Ireland Unlimited Company, priority 2021, published 2024).
# Experiments:
# [1] = Human liver microsome stability; format: in vitro ADME; details: 1 μM compound, NADPH 1 mM, 37° C., 0-60 min; for half-life at 1 μM: human, pooled human liver microsomes, pH 7.4, pooled human liver microsomes 0.5 mg/mL, read-out: HLM Metabolism t1/2; for HLM Metabolism t1/2: pooled human liver microsomes 0.5 mg/mL
# Protocol: Human Liver Microsome Stability t½ (Min) of Compounds of Formula (I) […] All incubations are performed singularly for each compound. NADPH was added to initiate the reaction with the final concentration of 1 mM and the final incubation volume of 400 μL. At 6 time points (0, 5, 10, 20, 40 and 60 min) reactions were stopped by the removal of 50 μL of the incubation mixture into plates containing acetonitrile at a of 1:3 (v:v). The plates were centrifuged at 3000 rpm for 10 min at 4° C. to precipitate the protein. Following protein precipitation, the sample supernatants were combined in cassettes of up to 8 compounds. The internal standard was added (1:1 supernatant to internal standard solution) and samples were analyzed using standard LC-MS conditions. From a plot of ln peak area ratio (compound peak area/internal standard peak area) against time, the gradient of the line is determined. Subsequently, half-life is calculated using the equations below: Elimination rate constant (k)=(−gradient) […]
# [2] = tested on: HBV (HepG2.117 cell line, inducibly HBV producing); assay: Anti-HBV activity, intracellular HBV DNA by real-time PCR in HepG2.117 cell line; format: cell-based, hepatitis B virus; details: HepG2.117 cells, 3 days of treatment
# Protocol: The anti HBV activity was measured using the HepG2.117 cell line, a stable, inducibly HBV producing cell line, which replicates HBV in the absence of doxycycline (Tet-off system). The HepG2 cell line is available from ATCCR under number HB-8065. Transfection of the HepG2 cell line can be as described in Sun and Nassal 2006 Journal of Hepatology 45 (2006) 636-645 “Stable HepG2- and Huh7-based human hepatoma cell lines for efficient regulated expression of infectious hepatitis B virus”.
# For the antiviral assay, HBV replication was induced, followed by a treatment with serially diluted compound in 96-well plates. After 3 days of treatment, the antiviral activity was determined by quantification of intracellular HBV DNA using real-time PCR and an HBV specific primer set and probe.
# [3] = Cytotoxicity, ATPlite Luminescence Assay; format: cell-based, human; details: human, HepG2 or HepG2.117 cells, 3-days incubation unless marked with *
# Protocol: Cytotoxicity of the compounds was tested using HepG2 or HepG2.117 cells, incubated for 3 or 4 days in the presence of compounds. The viability of the cells was assessed using the PERKIN ELMER ATPlite Luminescence Assay System.”
# [4] = Hepatitis B virus, HepG2.117, 72 h
Compound,half-life at 1 μM [1] [h],EC50 [2] [µM],CC50 at 3 days [3] [µM],"EC50 [2, 4] [µM]",HLM Metabolism t1/2 [1] [h]
"CNS(=O)(=O)c1ccc(C(C)N2C[C@@H](C)n3nc4c(c3C2=O)CN(C(=O)c2ccc(Cl)c(Cl)c2)[C@H](C)C4)cc1 (single isomer, unassigned) [Compound 17A, 4-((R*)-1-((3R,7R)-2-(3,4-dichlorobenzoyl)-3,7-dimethyl-10-oxo-1,3,4,7,8,10-hexahydropyrido[4′,3′:3,4]pyrazolo[1,5-a]pyrazin-9(2H)-yl)ethyl)-N-methylbenzenesulfonamide]",2.9,0.077,> 50,,
"Cc1ncnn1-c1ccc([C@H](C)N2C[C@@H](C)n3nc4c(c3C2=O)CN(C(=O)c2ccc(Cl)c(Cl)c2)[C@H](C)C4)cn1 (relative stereo) [Compound 25B, (3R,7R)-2-(3,4-dichlorobenzoyl)-3,7-dimethyl-9-((S*)-1-(6-(5-methyl-11H-1,2,4-triazol-1-yl)pyridin-3-yl)ethyl)-1,2,3,4,8,9-hexahydropyrido[4′,3′:3,4]pyrazolo[1,5-a]pyrazin-10(7H)-one]",1.49,,> 50,0.017,
"Cc1nnn(-c2ccc(C(C)N3C[C@@H](C)n4nc5c(c4C3=O)CN(C(=O)c3ccc(Cl)c(Cl)c3)[C@H](C)C5)cc2)n1 (single isomer, unassigned) [Compound 22A, (3R,7R)-2-(3,4-dichlorobenzoyl)-3,7-dimethyl-9-((R*)-1-(4-(5-methyl-2H-tetrazol-2-yl)phenyl)ethyl)-1,2,3,4,8,9-hexahydropyrido[4′,3′:3,4]pyrazolo[1,5-a]pyrazin-10(7H)-one]",1.35,,> 50,0.034,
"CC(c1ccn(CC(F)(F)F)n1)N1C[C@@H](C)n2nc3c(c2C1=O)CN(C(=O)c1ccc(Cl)c(C#N)c1)[C@H](C)C3 (single isomer, unassigned) [Compound 42B, 2-chloro-5-((3R,7R)-3,7-dimethyl-10-oxo-9-((S*)-1-(1-(2,2,2-trifluoroethyl)-1H-pyrazol-3-yl)ethyl)-1,2,3,4,7,8,9,10-octahydropyrido[4′,3′:3,4]pyrazolo[1,5-a]pyrazine-2-carbonyl)benzonitrile]",> 3,,> 50,0.06,
"CC(c1ccc(C(C)(C)O)nc1)N1C[C@@H](C)n2nc3c(c2C1=O)CN(C(=O)c1ccc(Cl)c(C#N)c1)[C@H](C)C3 (single isomer, unassigned) [Compound 63A, 2-chloro-5-((3R,7R)-9-((R*)-1-(6-(2-hydroxypropan-2-yl)pyridin-3-yl)ethyl)-3,7-dimethyl-10-oxo-1,2,3,4,7,8,9,10-octahydropyrido[4′,3′:3,4]pyrazolo[1,5-a]pyrazine-2-carbonyl)benzonitrile]",> 3,0.38,> 50,,
"CC(c1ccc(NS(C)(=O)=O)cn1)N1C[C@@H](C)n2nc3c(c2C1=O)CN(C(=O)c1ccc(Cl)c(C(F)(F)F)c1)[C@H](C)C3 (single isomer, unassigned) [Compound 33A, N-(6-((R*)-1-((3R,7R)-2-(4-chloro-3-(trifluoromethyl)benzoyl)-3,7-dimethyl-10-oxo-1,3,4,7,8,10-hexahydropyrido[4′,3′:3,4]pyrazolo[1,5-a]pyrazin-9(2H)-yl)ethyl)pyridin-3-yl)methanesulfonamide]",> 3,,> 50,0.036,
"CC(c1ccc(N2CCCC2=O)cc1)N1C[C@@H](C)n2nc3c(c2C1=O)CN(C(=O)c1ccc(Cl)c(C#N)c1)[C@H](C)C3 (single isomer, unassigned) [Compound 9A, 2-Chloro-5-((3R,7R)-3,7-Dimethyl-10-oxo-9-((R*)-1-(4-(2-oxopyrrolidin-1-yl)phenyl)ethyl)-1,2,3,4,7,8,9,10-octahydropyrido[4′,3′:3,4]pyrazolo[1,5-a]pyrazine-2-carbonyl)benzonitrile]",,,> 50,0.022,0.84
"CC(c1cnc(C(F)(F)F)cn1)N1C[C@@H](C)n2nc3c(c2C1=O)CN(C(=O)c1ccc(Cl)c(C#N)c1)[C@H](C)C3 (single isomer, unassigned) [Compound 10B, 2-Chloro-5-((3R,7R)-3,7-dimethyl-10-oxo-9-((S*)-1-(5-(trifluoromethyl)pyrazin-2-yl)ethyl)-1,2,3,4,7,8,9,10-octahydropyrido[4′,3′:3,4]pyrazolo[1,5-a]pyrazine-2-carbonyl)benzonitrile]",> 3,,> 50,0.087,
"CC(c1ccn(C(C)C)c(=O)c1)N1C[C@@H](C)n2nc3c(c2C1=O)CN(C(=O)c1ccc(Cl)c(C(F)(F)F)c1)[C@H](C)C3 (single isomer, unassigned) [Compound 47A, (3R,7R)-2-(4-chloro-3-(trifluoromethyl)benzoyl)-9-((R*)-1-(1-isopropyl-2-oxo-1,2-dihydropyridin-4-yl)ethyl)-3,7-dimethyl-1,2,3,4,8,9-hexahydropyrido[4′,3′:3,4]pyrazolo[1,5-a]pyrazin-10(7H)-one]",,0.068,> 50,,0.888
"CC(c1ccc(N2CCCS2(=O)=O)nc1)N1C[C@@H](C)n2nc3c(c2C1=O)CN(C(=O)c1ccc(Cl)c(C(F)(F)F)c1)[C@H](C)C3 (single isomer, unassigned) [Compound 28A, (3R,7R)-2-(4-chloro-3-(trifluoromethyl)benzoyl)-9-((R*)-1-(6-(1,1-dioxidoisothiazolidin-2-yl)pyridin-3-yl)ethyl)-3,7-dimethyl-1,2,3,4,8,9-hexahydropyrido[4′,3′: 3,4]pyrazolo[1,5-a]pyrazin-10(7H)-one]",,,> 50,0.012,0.835
"CC(c1cnc(NC2CC2)nc1)N1C[C@@H](C)n2nc3c(c2C1=O)CN(C(=O)c1ccc(Cl)c(Cl)c1)[C@H](C)C3 (single isomer, unassigned) [Compound 37A, (3R,7R)-9-((R*)-1-(2-(cyclopropylamino)pyrimidin-5-yl)ethyl)-2-(3,4-dichlorobenzoyl)-3,7-dimethyl-1,2,3,4,8,9-hexahydropyrido[4′,3′:3,4]pyrazolo[1,5-a]pyrazin-10(7H)-one]",,0.15,> 50,,>3
"CC(c1ccc(C2(O)CC2)cc1)N1C[C@@H](C)n2nc3c(c2C1=O)CN(C(=O)c1ccc(Cl)c(C#N)c1)[C@H](C)C3 (single isomer, unassigned) [Compound 14A, 2-Chloro-5-((3R,7R)-9-((R*)-1-(4-(1-hydroxycyclopropyl)phenyl)ethyl)-3,7-dimethyl-10-oxo-1,2,3,4,7,8,9,10-octahydropyrido[4′,3′:3,4]pyrazolo[1,5-a]pyrazine-2-carbonyl)benzonitrile]",1.37,,> 50,0.012,
"CC(c1cnn(C2CC2)c(=O)c1)N1C[C@@H](C)n2nc3c(c2C1=O)CN(C(=O)c1ccc(Cl)c(C(F)(F)F)c1)[C@H](C)C3 (single isomer, unassigned) [Compound 54A, (3R,7R)-2-(4-chloro-3-(trifluoromethyl)benzoyl)-9-((R*)-1-(1-cyclopropyl-6-oxo-1,6-dihydropyridazin-4-yl)ethyl)-3,7-dimethyl-1,2,3,4,8,9-hexahydropyrido[4′,3′: 3,4]pyrazolo[1,5-a]pyrazin-10(7H)-one]",1.29,0.16,> 50,,
"C[C@@H]1Cc2nn3c(c2CN1C(=O)c1ccc(Cl)c(C#N)c1)C(=O)N([C@@H](C)c1ccc(OC(F)F)cc1)C[C@@H]3C (relative stereo) [Compound 1B, 2-Chloro-5-((3R,7S*)-9-((S*)-1-(4-(difluoromethoxy)phenyl)ethyl)-3,7-dimethyl-10-oxo-1,2,3,4,7,8,9,10-octahydropyrido[4′,3′:3,4]pyrazolo[1,5-a]pyrazine-2-carbonyl)benzonitrile]",0.612,,> 50,1.49,
"C[C@@H]1Cc2nn3c(c2CN1C(=O)c1ccc(Cl)c(C#N)c1)C(=O)N([C@H](C)c1ccc(OC(F)F)cc1)CC3 [Ref 1, reference compound]",0.583,,> 12.5,0.095,
